Reference: US20090028925A1, “Novel Phosphinic Acid-Containing Thyromimetics” (priority 2005, published 2009)

Experiments:
[1] = target: T1, human thyroid hormone receptors TRα1 (Homo sapiens, UniProt P10827); assay: Receptor binding to TRα1 (gel filtration and scintillation proximity assay, labeled T3); settings: SPA data; read-out: Ki TRα
T1 construct: made in house; host or cells: Sf9 insect cells (baculovirus)
T1 sequence (P10827 1-410 isoform P10827-2): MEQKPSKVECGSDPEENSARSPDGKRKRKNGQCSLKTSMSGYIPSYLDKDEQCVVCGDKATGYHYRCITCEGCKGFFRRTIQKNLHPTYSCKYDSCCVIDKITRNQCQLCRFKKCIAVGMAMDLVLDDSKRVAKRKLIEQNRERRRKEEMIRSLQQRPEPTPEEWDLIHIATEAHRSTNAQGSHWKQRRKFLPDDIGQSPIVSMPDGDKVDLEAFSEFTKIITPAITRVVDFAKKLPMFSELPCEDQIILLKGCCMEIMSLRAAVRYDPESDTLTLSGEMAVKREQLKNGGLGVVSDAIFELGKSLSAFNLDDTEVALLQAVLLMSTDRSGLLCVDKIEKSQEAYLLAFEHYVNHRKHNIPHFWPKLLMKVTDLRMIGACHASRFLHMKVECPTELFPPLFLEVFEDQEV
T1 sequence (P19793 1-462 partner): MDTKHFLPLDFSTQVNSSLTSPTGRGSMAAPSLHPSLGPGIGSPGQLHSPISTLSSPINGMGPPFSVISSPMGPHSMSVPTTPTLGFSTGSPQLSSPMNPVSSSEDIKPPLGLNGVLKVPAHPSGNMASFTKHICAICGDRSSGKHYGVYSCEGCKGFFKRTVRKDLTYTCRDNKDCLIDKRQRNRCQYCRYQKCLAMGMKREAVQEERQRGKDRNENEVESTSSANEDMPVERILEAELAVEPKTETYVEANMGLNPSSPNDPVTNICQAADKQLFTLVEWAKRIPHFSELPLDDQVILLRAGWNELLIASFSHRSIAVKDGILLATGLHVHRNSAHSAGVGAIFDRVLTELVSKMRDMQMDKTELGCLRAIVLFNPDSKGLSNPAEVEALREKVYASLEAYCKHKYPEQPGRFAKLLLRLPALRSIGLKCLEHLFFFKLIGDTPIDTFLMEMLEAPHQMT

[2] = target: T2, human thyroid hormone receptors TRβ1 (Homo sapiens, UniProt P10828); assay: Receptor binding to TRβ1 (gel filtration and scintillation proximity assay, labeled T3); settings: SPA data; read-out: Ki TRβ
T2 construct: made in house; host or cells: Sf9 insect cells (baculovirus)
T2 sequence (P10828 1-461): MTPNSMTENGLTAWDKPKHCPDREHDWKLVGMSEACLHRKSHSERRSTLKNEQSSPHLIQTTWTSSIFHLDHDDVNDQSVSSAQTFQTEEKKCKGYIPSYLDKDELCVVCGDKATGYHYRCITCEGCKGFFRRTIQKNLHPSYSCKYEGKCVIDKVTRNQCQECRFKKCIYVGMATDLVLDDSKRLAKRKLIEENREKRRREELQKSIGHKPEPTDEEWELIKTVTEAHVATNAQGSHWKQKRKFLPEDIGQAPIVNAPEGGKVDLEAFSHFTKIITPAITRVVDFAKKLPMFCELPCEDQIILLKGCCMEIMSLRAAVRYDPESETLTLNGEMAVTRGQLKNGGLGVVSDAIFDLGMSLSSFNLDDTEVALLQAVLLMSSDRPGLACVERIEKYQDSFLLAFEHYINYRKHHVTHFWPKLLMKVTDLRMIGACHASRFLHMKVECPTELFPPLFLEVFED
T2 sequence (P19793 1-462 partner): T1 sequence (P19793 1-462 partner)

[3] = Prodrug activation in rat liver microsomes; assay type: in vitro ADME
Text: (§1) The purpose of these studies was to determine the kinetics of activation of prodrugs of thyromimetics in microsomal preparations. Microsomes contain the P450 enzyme that is required for the activation of many of the prodrugs prepared. The Km, Vmax, and intrinsic clearance values determined are measures of prodrug affinity for the microsomal enzymes, the rate at which the prodrug is activated, and the catalytic efficiency with which the prodrug is activated, respectively.
(§2) Methods: Activation of prodrugs by dexamethasone treated rat hepatocyte microsomes. Microsomes were isolated by standard differential centrifugation methods from dexamethasone-treated rats. The treatment is to increase cytochrome P450-3A (CYP3A4) activity. Induction of CYP3A4 was confirmed by an increase in testosterone hydroxylation.
(§3) Various concentrations of HepDirect™ Compound 7 were incubated with rat hepatocytes microsomes. Compound 7 formation was analyzed by HPLC using UV-Vis detection. Kinetic parameters (Vmax and Km) were calculated from the transformed data and the intrinsic clearance calculated from the kinetic parameters.

[4] = test system: CYP3A (cytochrome P450-3A (CYP3A4)); assay: Prodrug activation in rat liver microsomes; assay type: in vitro ADME; settings: liver microsomes from dexamethasone-treated rats; dexamethasone treated rat microsomes, formation of Compound 7
Text: as §1, §2, §3

[5] = test system: serum cholesterol; assay: Subacute study in cholesterol fed rats, PO: serum cholesterol; assay type: in vivo; settings: PO once a day for seven days
Experimental: (§4) Methods: […] Compound 13-1-cis and Compound 18 were administered PO once a day for seven days. Serum TSH is measured using an enzyme immunoassay (EIA) kit designed for rat TSH (Amersham Pharmacia Biotech, Arlington Heights, Ill.). Expression levels of liver genes (e.g., the LDL-receptor, apoB, cpt-1, spot14 and apoAI) and heart genes ([…]2, HCN2, Kv1.5, MHCα, MHCβ, Alpha1c) are quantified by Northern blot analysis or by RT-PCR. For Northern analyses, RNA is isolated from liver tissue by a guanidinium thiocyanate method, and total RNA is obtained using an RNeasy column (Quiagen). mRNA is separated on a 1% agarose gel and transferred to a nylon membrane. Oligonucleotides specific for the complementary gene sequences are used to make ^32P-labeled probes (Multiprime DNA labeling systems, Amersham Pharmacia Biotech). Following hybridization of the probes to the nylon membranes, radioactivity is assessed on a blue film (Eastman Kodak Co), and the resulting image quantified using the appropriate software. RT-PCR is performed using an iCycler instrument (Biorad) using appropriate primers by means of standard methodology [[…] et al. (2000) Life Sciences 66: 1683-94]. GPDH activity in liver and heart are measured as described in Example B. […] Alternatively, expression levels of the corresponding genes are determined by Northern blot analysis or RT-PCR as described above.

[6] = Subacute study in cholesterol fed rats, PO: heart weight; assay type: in vivo; settings: PO seven days, any dose tested
Experimental: as §4

[7] = test system: plasma cholesterol; assay: Cholesterol lowering in hypercholesterolemic rats; assay type: in vivo; settings: hypercholesterolemic rats, 0.5 mg/kg/d orally
[8] = ZDF, rat, in vivo, po, 28 days
Experimental: Compound 18 was administered at doses up to 5 mg/kg/d. Compound cis-13-1 was administered at doses up to 50 mg/kg/d. We reasoned that the ZDF rat, as a metabolically challenged animal model, would be more sensitive to the potential adverse cardiac effects of thyromimetics than a normal, cholesterol-fed rat. At sacrifice, heart rate, and the first derivative of left ventricular pressure (LV dP/dt) were measured with a Millar catheter inserted into the left ventricle.

[9] = test system: thyroid stimulating hormone (TSH); assay: Circulating TSH in rats (cholesterol-fed, ZDF); assay type: in vivo
Experimental: Methods: mGPDH activity was analyzed in isolated mitochondria using 2-(4-iodophenyl)-3-(4-nitrophenyl)-5-phenyl tetrazolium chloride as the terminal electron acceptor (Gardner R S, Analytical Biochemistry 59:272 (1974)). Commercially available GPDH was used in each assay as a standard (Sigma, St. Louis, Mo.). Changes in levels of mRNA for liver and heart genes are analyzed using reverse transcriptase followed by real-time PCR analysis. The analysis is performed using an iCycler instrument (Biorad) and appropriate primers by means of standard methodology [e.g., Schwab D A et al. (2000) Life Sciences 66: 1683-94]. The amounts of mRNA are normalized to an internal control, typically, cyclophilin. Serum TSH is measured using an enzyme immunoassay (EIA) kit designed for rat TSH (Amersham Pharmacia Biotech, Arlington Heights, Ill.).
Another concern with synthetic thyromimetics is the suppression of the endogenous thyroid axis. Thyroid homeostasis is maintained by the action of thyroid releasing hormone (TRH) and thyroid stimulating hormone (TSH). […] Although this particular side effect has been noted, it has typically been treated with less concern than the cardiac safety issues. […] Therefore previous investigators have measured TSH levels when testing synthetic thyromimetics and have used a 30% decrease of TSH as the denominator in their therapeutic index calculations. […] Therefore, both compounds suppress TSH as doses lower than that required to decrease circulating cholesterol. […] However, 0.2 mg/kg/d of Compound 18 in 28 day treated ZDF rats, decreased TSH levels greater than 90%.

[10] = Cardiovascular activity in the Sprague Dawley rat (HR, LV dP/dt, aortic pressure, heart weight); assay type: in vivo; settings: SD rats, 1 mg/kg p.o., 7 days
Text: Method: […] The control group (n=6) was given vehicle only. […] On the 7th day after the start of dosing, animals were anesthetized with Isofluorane and the left ventricle cannulated with a high fidelity catheter tip transducer via the right carotid artery. Left ventricular pressure, its first derivative (LVdP/dt), lead I ECG, and heart rate (HR) triggered off the ECG waveform, were digitally recorded. LV dP/dt is a well accepted measure of ionotropic state. Systolic and diastolic aortic pressures were measured by retracting the catheter into the proximal aorta.

[11] = cholesterol-fed rat; cited from earlier work

SMILES | Ki [1] | Ki [2] | Vmax ([3]; dexamethasone treated rat microsomes, formation of Compound 7) | microsomal CLint ([3]; rat, liver microsomes from dexamethasone-treated rats, intrinsic clearance calculated from the kinetic parameters) | Km [4] | doses that significantly decreased serum cholesterol [5] | cardiac hypertrophy [6] | cholesterol lowering [7] | TI for LV dP/dt (increase of 25%) [8] | therapeutic index with respect to heart rate (ED15 HR/ED50 cholesterol) [8] | decrease of TSH levels ([9]; ZDF rats, 0.2 mg/kg/d, 28 day) | therapeutic index of TSH levels (30% decrease of TSH) ([9]; cholesterol-fed rats, treated for 7 days) | HR, LV dP/dt, and systolic aortic pressure [10] | Heart weight and heart weight normalized to body weight [10] | therapeutic index (TI) with respect to heart rate increases (ED15 HR/ED50 cholesterol) [11]
Cc1cc(OC[P@@]2(=O)OCC[C@@H](c3cccc(Cl)c3)O2)cc(C)c1Cc1ccc(O)c(C(C)C)c1 [Compound 13-1-cis, Cis(S)-2-[(3,5-Dimethyl-4-(4′-hydroxy-3′-iso-propylbenzyl)phenoxy)methyl]-4-(3-Chlorophenyl)-2-oxo-2λ^5-[1,3,2]-dioxaphosphinane] | 2.58 µM | 1.98 µM | 1746 pmol/min/mg | 56 µL/min/mg | 31 µM | 0.6 to 50 mg/kg/day | No significant undesirable cardiac hypertrophy was observed | demonstrated a significant lowering of cholesterol | – | – | – | – | – | – | –
CC(C)c1cc(Oc2c(Cl)cc(CC(=O)O)cc2Cl)ccc1O [Compound 18, 3,5-dichloro-4-[4′-hydroxy-3′-iso-propylphenoxy]benzeneacetic acid, reference compound] | – | – | – | – | – | 1 mg/kg/day | – | – | 0.15 | 0.4 | greater than 90% | 0.4 | marked and statistically significant increases | significantly increased | 40
